Laboratory results taken from patent US12624034B2, “Non-covalent modifiers of AKT1 and uses thereof” (Terremoto Biosciences, Inc., priority 2023, dated 2026).
Like-named read-outs stand apart in the source and are kept apart here.

How the values were obtained:
Format in all cases: binding
AKT2 = biological target: T1, AKT2 (Homo sapiens, UniProt P31751); assay: Live cell AKT2 target engagement by NanoBRET competitive probe displacement in HEK293 cells; conditions: 2 h at 37° C., read-out: AKT2 IC50
T1 construct: expressed in transfected cells; host or cells: HEK293
T1 sequence (P31751 whole entry): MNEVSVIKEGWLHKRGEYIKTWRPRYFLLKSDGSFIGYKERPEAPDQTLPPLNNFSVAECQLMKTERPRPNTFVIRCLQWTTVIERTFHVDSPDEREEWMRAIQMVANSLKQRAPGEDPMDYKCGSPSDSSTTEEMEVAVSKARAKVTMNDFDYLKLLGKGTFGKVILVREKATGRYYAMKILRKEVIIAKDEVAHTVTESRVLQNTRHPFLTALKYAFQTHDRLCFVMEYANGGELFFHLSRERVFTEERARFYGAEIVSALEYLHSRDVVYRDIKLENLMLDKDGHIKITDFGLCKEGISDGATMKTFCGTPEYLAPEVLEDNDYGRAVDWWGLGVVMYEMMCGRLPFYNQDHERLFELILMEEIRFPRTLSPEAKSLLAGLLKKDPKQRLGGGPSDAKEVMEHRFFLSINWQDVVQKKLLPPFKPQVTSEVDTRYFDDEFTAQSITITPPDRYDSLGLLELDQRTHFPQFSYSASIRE

AKT1 E17K = biological target: T2, AKT1 E17K (Homo sapiens, UniProt P31749, E17K); assay: Live cell AKT1 E17K target engagement by NanoBRET competitive probe displacement in HEK293 cells; conditions: 2 h at 37° C.
T2 construct: expressed in transfected cells; host or cells: HEK293
T2 sequence (P31749 whole entry E17K): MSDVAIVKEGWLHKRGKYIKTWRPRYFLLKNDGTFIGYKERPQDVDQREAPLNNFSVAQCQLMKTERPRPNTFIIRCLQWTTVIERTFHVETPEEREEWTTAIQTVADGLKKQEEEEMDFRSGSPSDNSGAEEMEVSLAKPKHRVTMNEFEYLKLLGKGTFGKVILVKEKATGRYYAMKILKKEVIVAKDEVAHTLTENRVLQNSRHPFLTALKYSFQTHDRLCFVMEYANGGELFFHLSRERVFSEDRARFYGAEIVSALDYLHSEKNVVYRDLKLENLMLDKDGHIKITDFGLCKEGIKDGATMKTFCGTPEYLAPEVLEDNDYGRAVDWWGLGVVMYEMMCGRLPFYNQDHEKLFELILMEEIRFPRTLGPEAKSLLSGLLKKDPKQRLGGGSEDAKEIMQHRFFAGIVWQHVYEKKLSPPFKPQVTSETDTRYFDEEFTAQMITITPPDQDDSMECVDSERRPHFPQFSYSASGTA
Method: Determining live cell AKT1 E17K, AKT1 WT, and AKT2 target engagement by NanoBRET competitive probe displacement. Live cell target engagement assays were performed as described (Vasta, J. D. et al. Cell Chem Biol 2018, 25(11), 206-214). Briefly, HEK293 cells were transfected with plasmids encoding kinase-NanoLuciferase fusion proteins overnight. Cells were then treated with serial dilutions of compound and an ˜EC50 concentration of fluorescently-tagged ATP-competitive tracer (Promega). After incubation for 2 h at 37° C., luciferase substrate and extracellular luciferase inhibitor were added to all wells, and luminescent intensity at 460 nm and 600 nm were measured on a multimode plate-reader. The ratio of E600/E460 was calculated to give the tracer engagement signal (BRET). IC50 values were calculated by fitting BRET values to a log(inhibitor) vs. response Hill equation.

AKT1 WT = biological target: T3, AKT1 WT (Homo sapiens, UniProt P31749); assay: Live cell AKT1 WT target engagement by NanoBRET competitive probe displacement in HEK293 cells; conditions: 2 h at 37° C.
T3 construct: expressed in transfected cells; host or cells: HEK293
T3 sequence (P31749 whole entry): as the sequence (P31749 whole entry E17K) above, with K17E counted along it

[1] = NanoBRET live cell target engagement, HEK293 cells
[2] = NanoBRET live cell target engagement, HEK293 cells, read-out: AKT1 WT IC50
[3] = NanoBRET competitive probe displacement, live HEK293 cells
[4] = NanoBRET competitive probe displacement, live HEK293 cells, read-out: AKT1 WT IC50

Row | IC50 (AKT2; [1]) [nM] | IC50 (AKT1 WT; [2]) [nM] | IC50 (AKT2; [3]) [nM] | IC50 (AKT1 WT; [4]) [nM] | SMILES | other results
1 | 8890 | > 1000 | – | – | C#CC1(OCC(=O)N[C@H]2CCc3cc(-n4c(-c5cccnc5N)nc5ccc(-n6cccn6)nc54)ccc32)COC1 [Compound 9, N—{(S)-5-[2-(2-amino-3-pyridyl)-5-(1-pyrazolyl)-3H-1,3,4-triazainden-3-yl]-1-indanyl}(3-ethynyl-3-oxetanyloxy)acetamide] | IC50 (AKT1 E17K; [1]): > 1000 nM
2 | – | – | 26.6 | 5.42 | N#Cc1nccc(N2CCC(N[C@@H]3c4ccc(-n5c(-c6cccnc6N)nc6ccc(-n7cccn7)nc65)cc4CC3F)CC2)n1 (some centres unmarked) [Compound 579] | IC50 (AKT1 E17K; [3]): 9.88 nM
3 | – | – | 23.7 | 4.56 | N#Cc1nc(N2CCC(N[C@H]3CCc4cc(-n5c(-c6cccnc6N)nc6ccc(-n7cccn7)nc65)ccc43)CC2)cs1 [Compound 593] | IC50 (AKT1 E17K; [3]): 22 nM
4 | – | – | 11 | 4.32 | N#Cc1ncnc(N2CCC(N[C@H]3CCc4cc(-n5c(-c6cccnc6N)nc6ccc(-n7cccn7)nc65)ccc43)CC2)n1 [Compound 592] | IC50 (AKT1 E17K; [3]): 5.5 nM
5 | – | – | 1210 | 81 | COc1cc(-c2ccc3nc(-c4cccnc4N)n(-c4ccc5c(c4)CC(F)[C@@H]5NC4CCN(C(=O)C5CC5)CC4)c3n2)ccn1 (some centres unmarked) [Compound 543] | IC50 (AKT1 E17K; [3]): 526 nM
6 | – | – | 62.5 | 6.1 | Cc1cc(N2CCC(N[C@H]3CCc4cc(-n5c(-c6cccnc6N)nc6ccc(-n7cccn7)nc65)ccc43)CC2)nc(C#N)n1 [Cpd 584, (S)-4-(4-((5-(2-(2-aminopyridin-3-yl)-5-(1H-pyrazol-1-yl)-3H-imidazo[4,5-b]pyridin-3-yl)-2,3-dihydro-1H-inden-1-yl)amino)piperidin-1-yl)-6-methylpyrimidine-2-carbonitrile] | IC50 (AKT1 E17K; [3]): 11.8 nM
7 | – | – | 24.4 | 11.2 | N#Cc1nccc(C(=O)N2CCC(N[C@H]3CCc4cc(-n5c(-c6cccnc6N)nc6ccc(-n7cccn7)nc65)ccc43)CC2)n1 [Compound 580] | IC50 (AKT1 E17K; [3]): 11.4 nM
8 | – | – | 10.7 | 4.77 | Cc1cnc(C#N)nc1N1CCC(N[C@H]2CCc3cc(-n4c(-c5cccnc5N)nc5ccc(-n6cccn6)nc54)ccc32)CC1 [Compound 585] | IC50 (AKT1 E17K; [3]): 8.23 nM
9 | – | – | 38.4 | 6.51 | N#Cc1nccc(N2CC(N[C@H]3CCc4cc(-n5c(-c6cccnc6N)nc6ccc(-n7cccn7)nc65)ccc43)C2)n1 [Compound 581] | IC50 (AKT1 E17K; [3]): 20.8 nM
10 | > 10000 | > 1000 | – | – | CN1C(=O)CCC1CC(=O)N[C@H]1CCc2cc(-n3c(-c4cccnc4N)nc4ccc(-n5cccn5)nc43)ccc21 (mixture of isomers) [Compound 11, N—{(S)-5-[2-(2-amino-3-pyridyl)-5-(1-pyrazolyl)-3H-1,3,4-triazainden-3-yl]-1-indanyl}(1-methyl-5-oxo-2-pyrrolidinyl)acetamide] | IC50 (AKT1 E17K; [1]): > 1000 nM
11 | – | – | 43 | 6.98 | COc1cnc(C#N)nc1N1CCC(N[C@H]2CCc3cc(-n4c(-c5cccnc5N)nc5ccc(-n6cccn6)nc54)ccc32)CC1 [Cpd 586] | IC50 (AKT1 E17K; [3]): 17.3 nM
12 | – | – | 997 | 50.9 | COc1cnn(-c2ccc3nc(-c4cccnc4N)n(-c4ccc5c(c4)CC[C@@H]5NC4CCN(C(=O)C5CC5)CC4)c3n2)c1 [Compound 485] | –
13 | – | – | 37.9 | 3.52 | Nc1ncccc1-c1nc2ccc(-c3ccn(C(F)F)n3)nc2n1-c1ccc2c(c1)CC[C@@H]2NC(=O)c1ccc(C(F)(F)F)nc1 [Compound 421] | –
14 | – | – | 5410 | 92.6 | Cc1oncc1C(=O)N1CCC(N[C@H]2CCc3cc(-n4c(-c5cccnc5N)nc5ccc(-n6cccn6)nc54)ccc32)CC1 [Compound 489] | –
15 | > 10000 | > 1000 | – | – | Nc1ncccc1-c1nc2ccc(-n3cccn3)nc2n1-c1ccc2c(c1)CC[C@@H]2NC(=O)N1CCOCC1 [Compound 27, (S)—N-(5-(2-(2-aminopyridin-3-yl)-5-(1H-pyrazol-1-yl)-3H-imidazo[4,5-b]pyridin-3-yl)-2,3-dihydro-1H-inden-1-yl)morpholine-4-carboxamide] | –
16 | 99.6 | 10.5 | – | – | COCCOc1cc(C(=O)N[C@H]2CCc3cc(-n4c(-c5cccnc5N)nc5ccc(-n6cccn6)nc54)ccc32)ccn1 [Compound 203] | –
17 | 180 | 15.3 | – | – | Nc1ncccc1-c1nc2ccc(-n3cccn3)nc2n1-c1ccc2c(c1)CC[C@@H]2NC(=O)c1ccnc(OC2COC2)c1 [Compound 164, (S)—N-(5-(2-(2-aminopyridin-3-yl)-5-(1H-pyrazol-1-yl)-3H-imidazo[4,5-b]pyridin-3-yl)-2,3-dihydro-1H-inden-1-yl)-2-(oxetan-3-yloxy)isonicotinamide] | –
18 | – | – | 76.8 | 7.65 | N#Cc1nc2c(c(N3CCC(N[C@H]4CCc5cc(-n6c(-c7cccnc7N)nc7ccc(-n8cccn8)nc76)ccc54)CC3)n1)CCC2 [Compound 603] | IC50 (AKT1 E17K; [3]): 16.5 nM
19 | – | – | 1130 | 26.4 | COc1ccn(-c2ccc3nc(-c4cccnc4N)n(-c4ccc5c(c4)CC[C@@H]5NC4CCN(C(=O)C5CC5)CC4F)c3n2)n1 (single isomer, unassigned) [Compound 514] | –

Row | IC50 (AKT2; [1]) [nM] | IC50 (AKT1 WT; [2]) [nM] | IC50 (AKT2; [3]) [nM] | IC50 (AKT1 WT; [4]) [nM] | SMILES | other results
20 | – | – | 1470 | 21.7 | Nc1ncccc1-c1nc2ccc(-n3nccn3)nc2n1-c1ccc2c(c1)CC[C@@H]2NC(=O)c1ccns1 [Compound 413] | –
21 | 5170 | 126 | – | – | CN[C@H]1CCc2cc(-n3c(-c4cccnc4N)nc4ccc(-n5cccn5)nc43)ccc21 [Compound 339] | –
22 | – | – | 1290 | 32 | CSc1ccn(-c2ccc3nc(-c4cccnc4N)n(-c4ccc5c(c4)CC[C@@H]5NC4CCN(C(=O)C5CC5)CC4)c3n2)n1 [Compound 518] | –
23 | 223 | 18.8 | – | – | Nc1ncccc1-c1nc2ccc(-n3cccn3)nc2n1-c1ccc2c(c1)CC[C@@H]2NC(=O)c1cccnc1Cl [Compound 108] | –
24 | 4310 | > 737 | – | – | CC(=O)N[C@H]1CCc2cc(-n3c(-c4cccnc4N)nc4ccc(-n5cccn5)nc43)ccc21 [Compound 1, (S)—N-(5-(2-(2-aminopyridin-3-yl)-5-(1H-pyrazol-1-yl)-3H-imidazo[4,5-b]pyridin-3-yl)-2,3-dihydro-1H-inden-1-yl)acetamide] | IC50 (AKT1 E17K; [1]): > 1000 nM
25 | 286 | 14.6 | – | – | Cc1ccc(C(=O)N[C@H]2CCc3cc(-n4c(-c5cccnc5N)nc5ccc(-c6nc(C)co6)nc54)ccc32)cn1 [Compound 267] | –
26 | 900 | 39.8 | – | – | Nc1ncccc1-c1nc2ccc(-n3cccn3)nc2n1-c1ccc2c(c1)CC[C@@H]2n1cc(C2CCO2)nn1 (some centres unmarked) [Compound 354] | –
27 | 143 | 14.7 | – | – | N#Cc1cc(-n2ccc(F)n2)nc2c1nc(-c1cccnc1N)n2-c1ccc2c(c1)CC[C@@H]2NC(=O)c1ccc(C(F)F)nc1 [Compound 329] | –
28 | 58.7 | 6.14 | – | – | Nc1ncccc1-c1nc2ccc(-n3cccn3)nc2n1-c1ccc2c(c1)CC[C@@H]2NC(=O)c1ccccc1F [Compound 333] | –
29 | > 10000 | 535 | – | – | Cc1nccnc1C(=O)N[C@H]1CCc2cc(-n3c(-c4cccnc4N)nc4ccc(-c5ncco5)nc43)ccc21 [Compound 270] | –
30 | – | – | 1330 | 124 | Nc1ncccc1-c1nc2ccc(-c3cnccn3)nc2n1-c1ccc2c(c1)CC[C@@H]2NC1CCN(C(=O)C2CC2)CC1 [Compound 556] | –
31 | 39.4 | – | – | – | Cc1cc(C(=O)N[C@H]2CCc3cc(-n4c(-c5cccnc5N)nc5ccc(-n6cccn6)nc54)ccc32)cc(C)n1 [Compound 76] | IC50 (AKT1 WT; AKT1 WT IC50 (nM), NanoBRET live cell target engagement, HEK293 cells): 6.86 nM
32 | 3230 | 66.2 | – | – | Cc1nccnc1C(=O)N[C@H]1CCc2cc(-n3c(-c4cccnc4N)nc4ccc(-n5cccn5)nc43)ccc21 [Compound 118] | –
33 | 3220 | 70 | – | – | Nc1ncccc1-c1nc2ccc(-n3cccn3)nc2n1-c1ccc2c(c1)CC[C@@H]2NC(=O)c1cc2n(n1)CCO2 [Compound 242] | –
34 | – | – | 1740 | 28.3 | Cc1ccc(C(=O)N[C@H]2CCc3cc(-n4c(-c5cccnc5N)nc5c(C#N)cc(-n6nccn6)nc54)ccc32)cn1 [Compound 547] | –
35 | 368 | 21.8 | – | – | Cc1nnn([C@H]2CCc3cc(-n4c(-c5cccnc5N)nc5ccc(-n6cccn6)nc54)ccc32)c1C [Compound 249, (S)-3-(3-(1-(4,5-dimethyl-1H-1,2,3-triazol-1-yl)-2,3-dihydro-1H-inden-5-yl)-5-(1H-pyrazol-1-yl)-3H-imidazo[4,5-b]pyridin-2-yl)pyridin-2-amine] | –
36 | 30.4 | 3.42 | – | – | Nc1ncccc1-c1nc2ccc(-n3cccn3)nc2n1-c1ccc2c(c1)CC[C@@H]2NC(=O)c1ccn2ccnc2c1 [Compound 255] | –
37 | – | – | 980 | 20.2 | Nc1ncccc1-c1nc2ccc(-n3cccn3)nc2n1-c1ccc2c(c1)CC[C@@H]2NC1CCN(C(=O)C2CC2)CC1F (some centres unmarked) [Compound 445] | –
38 | – | – | 196 | 10.4 | COc1cc2c(cn1)CCC2N[C@H]1CCc2cc(-n3c(-c4cccnc4N)nc4ccc(-n5cccn5)nc43)ccc21 (some centres unmarked) [Compound 511] | –
